Experiments:
Assay in all cases: AlphaScreen Assay
[1] = biological target: Receptor tyrosine-protein kinase erbB-2 (Homo sapiens, UniProt P04626)
Protocol: (§1) In AlphaScreen, when the donor and acceptor beads are close in proximity, a series of photochemical events will give rise to a fluorescent signal upon light activation. Here we use biotinylated poly-(Glu, Tyr) 4:1 as the kinase substrate, streptavidin-coated donor beads and anti-phosphortyrosine antibody PY100-coated acceptor beads. […] Compounds, ATP, biotinylated poly-(Glu, Tyr) and kinases are mixed in a volume of 20 μL for 1 hr at ambient temperature using Greiner 384-well white clear bottom medium binding plates. Then 10 uL solution containing 15-30 mg/mL AlphaScreen beads, 75 mM Hepes, pH 7.4, 300 mM NaCl, 120 mM EDTA, 0.3% BSA and 0.03% Tween-20 is added to each well. After 2-16 hr incubation of the beads, plates are read in a Perkin Elmer AlphaQuest reader (available from PerkinElmer Life and Analytical Sciences, Inc., of Boston Mass.).

[2] = biological target: Vascular endothelial growth factor receptor 2 (Homo sapiens, UniProt P35968)
Protocol: as §1

[3] = biological target: Vascular endothelial growth factor receptor 1 (Homo sapiens, UniProt P17948)
Protocol: as §1

[4] = biological target: T1, Ephrin type-B receptor 4 (Homo sapiens, UniProt P54760)
T1 sequence (P54760 whole entry): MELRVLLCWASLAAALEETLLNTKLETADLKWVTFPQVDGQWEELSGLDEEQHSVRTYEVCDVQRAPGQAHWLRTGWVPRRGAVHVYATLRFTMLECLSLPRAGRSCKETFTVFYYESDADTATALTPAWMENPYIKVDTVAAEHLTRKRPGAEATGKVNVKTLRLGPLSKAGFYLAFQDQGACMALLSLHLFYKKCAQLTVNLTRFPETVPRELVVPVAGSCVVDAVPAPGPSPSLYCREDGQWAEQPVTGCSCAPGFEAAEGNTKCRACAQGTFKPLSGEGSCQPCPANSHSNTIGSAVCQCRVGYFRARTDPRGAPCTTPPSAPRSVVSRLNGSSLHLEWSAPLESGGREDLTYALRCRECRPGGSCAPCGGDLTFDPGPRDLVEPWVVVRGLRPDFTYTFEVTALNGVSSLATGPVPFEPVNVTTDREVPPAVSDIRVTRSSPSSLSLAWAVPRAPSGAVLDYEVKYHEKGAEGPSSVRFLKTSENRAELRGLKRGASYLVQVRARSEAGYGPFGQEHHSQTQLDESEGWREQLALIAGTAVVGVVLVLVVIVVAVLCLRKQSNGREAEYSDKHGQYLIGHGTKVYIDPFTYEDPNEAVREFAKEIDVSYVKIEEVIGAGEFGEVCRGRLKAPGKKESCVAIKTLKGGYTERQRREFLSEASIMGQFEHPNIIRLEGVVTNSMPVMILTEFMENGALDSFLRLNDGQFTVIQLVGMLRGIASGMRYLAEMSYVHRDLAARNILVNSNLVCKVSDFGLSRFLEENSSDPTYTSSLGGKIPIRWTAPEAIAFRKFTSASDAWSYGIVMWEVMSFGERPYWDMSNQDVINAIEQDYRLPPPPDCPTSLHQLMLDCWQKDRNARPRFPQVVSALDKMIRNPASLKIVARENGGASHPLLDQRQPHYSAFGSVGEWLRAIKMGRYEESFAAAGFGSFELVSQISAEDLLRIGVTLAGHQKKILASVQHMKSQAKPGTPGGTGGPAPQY
Protocol: as §1

[5] = biological target: Ephrin type-A receptor 2 (Homo sapiens, UniProt P29317)
Chain of Ephrin type-A receptor 2 (P29317 whole entry): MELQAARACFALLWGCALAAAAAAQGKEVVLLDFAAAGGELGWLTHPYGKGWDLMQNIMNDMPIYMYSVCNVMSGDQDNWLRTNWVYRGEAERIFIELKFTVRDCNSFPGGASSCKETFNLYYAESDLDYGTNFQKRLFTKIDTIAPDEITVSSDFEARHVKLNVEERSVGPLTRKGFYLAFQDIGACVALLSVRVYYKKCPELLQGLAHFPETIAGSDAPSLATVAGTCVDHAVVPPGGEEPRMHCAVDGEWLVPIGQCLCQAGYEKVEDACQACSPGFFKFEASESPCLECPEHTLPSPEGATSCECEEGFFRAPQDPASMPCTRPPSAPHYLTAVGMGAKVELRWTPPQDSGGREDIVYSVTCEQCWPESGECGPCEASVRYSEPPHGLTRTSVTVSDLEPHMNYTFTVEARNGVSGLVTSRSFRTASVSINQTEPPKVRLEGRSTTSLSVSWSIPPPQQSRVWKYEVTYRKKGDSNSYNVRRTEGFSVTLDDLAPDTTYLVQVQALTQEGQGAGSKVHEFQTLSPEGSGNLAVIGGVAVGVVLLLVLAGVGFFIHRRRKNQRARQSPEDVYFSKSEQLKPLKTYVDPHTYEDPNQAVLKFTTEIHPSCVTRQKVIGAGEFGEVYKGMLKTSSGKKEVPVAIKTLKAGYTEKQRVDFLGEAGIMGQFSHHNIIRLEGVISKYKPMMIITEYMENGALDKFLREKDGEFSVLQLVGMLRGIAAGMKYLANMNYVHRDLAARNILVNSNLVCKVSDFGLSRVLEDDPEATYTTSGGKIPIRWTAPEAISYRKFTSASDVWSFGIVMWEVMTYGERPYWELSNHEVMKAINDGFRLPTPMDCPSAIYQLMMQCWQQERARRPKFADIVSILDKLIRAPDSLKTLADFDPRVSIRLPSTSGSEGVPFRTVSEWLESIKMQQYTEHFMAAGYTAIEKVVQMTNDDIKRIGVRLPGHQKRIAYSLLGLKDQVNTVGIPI
Protocol: as §1

Chain of Vascular endothelial growth factor receptor 1 (P17948 whole entry): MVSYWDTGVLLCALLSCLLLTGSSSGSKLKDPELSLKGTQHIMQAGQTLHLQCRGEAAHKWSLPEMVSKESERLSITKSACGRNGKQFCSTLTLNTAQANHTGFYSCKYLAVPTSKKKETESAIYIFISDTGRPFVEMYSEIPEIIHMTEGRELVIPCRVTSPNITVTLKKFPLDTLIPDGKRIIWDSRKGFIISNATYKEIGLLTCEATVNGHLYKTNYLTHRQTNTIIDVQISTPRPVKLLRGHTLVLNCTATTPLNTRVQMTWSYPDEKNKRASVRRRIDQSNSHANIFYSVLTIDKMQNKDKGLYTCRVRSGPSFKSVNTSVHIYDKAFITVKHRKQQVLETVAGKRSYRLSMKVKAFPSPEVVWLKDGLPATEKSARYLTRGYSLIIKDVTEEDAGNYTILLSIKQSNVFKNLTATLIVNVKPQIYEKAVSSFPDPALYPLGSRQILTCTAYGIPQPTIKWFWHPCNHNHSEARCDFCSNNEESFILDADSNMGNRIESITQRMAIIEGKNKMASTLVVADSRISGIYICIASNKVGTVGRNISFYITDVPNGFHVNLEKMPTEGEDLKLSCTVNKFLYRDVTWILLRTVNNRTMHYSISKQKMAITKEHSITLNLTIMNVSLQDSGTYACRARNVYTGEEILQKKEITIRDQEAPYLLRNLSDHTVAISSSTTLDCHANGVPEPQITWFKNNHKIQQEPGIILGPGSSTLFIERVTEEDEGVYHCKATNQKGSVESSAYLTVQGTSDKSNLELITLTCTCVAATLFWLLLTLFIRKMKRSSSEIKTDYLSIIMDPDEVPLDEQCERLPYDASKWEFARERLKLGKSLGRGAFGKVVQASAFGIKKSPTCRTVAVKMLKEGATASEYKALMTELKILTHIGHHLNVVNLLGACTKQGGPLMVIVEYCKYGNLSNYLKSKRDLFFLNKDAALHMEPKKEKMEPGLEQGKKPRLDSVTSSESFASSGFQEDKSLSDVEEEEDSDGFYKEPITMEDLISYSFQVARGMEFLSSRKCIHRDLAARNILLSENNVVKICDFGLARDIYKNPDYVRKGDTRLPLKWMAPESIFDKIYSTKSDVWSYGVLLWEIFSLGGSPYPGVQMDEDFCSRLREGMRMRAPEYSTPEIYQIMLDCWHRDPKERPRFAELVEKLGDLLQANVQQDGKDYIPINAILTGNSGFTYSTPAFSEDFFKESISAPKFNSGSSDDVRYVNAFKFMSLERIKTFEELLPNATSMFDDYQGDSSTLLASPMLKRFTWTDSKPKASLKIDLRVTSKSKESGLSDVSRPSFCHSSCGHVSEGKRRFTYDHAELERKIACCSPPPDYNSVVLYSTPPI
Chain of Vascular endothelial growth factor receptor 2 (P35968 whole entry): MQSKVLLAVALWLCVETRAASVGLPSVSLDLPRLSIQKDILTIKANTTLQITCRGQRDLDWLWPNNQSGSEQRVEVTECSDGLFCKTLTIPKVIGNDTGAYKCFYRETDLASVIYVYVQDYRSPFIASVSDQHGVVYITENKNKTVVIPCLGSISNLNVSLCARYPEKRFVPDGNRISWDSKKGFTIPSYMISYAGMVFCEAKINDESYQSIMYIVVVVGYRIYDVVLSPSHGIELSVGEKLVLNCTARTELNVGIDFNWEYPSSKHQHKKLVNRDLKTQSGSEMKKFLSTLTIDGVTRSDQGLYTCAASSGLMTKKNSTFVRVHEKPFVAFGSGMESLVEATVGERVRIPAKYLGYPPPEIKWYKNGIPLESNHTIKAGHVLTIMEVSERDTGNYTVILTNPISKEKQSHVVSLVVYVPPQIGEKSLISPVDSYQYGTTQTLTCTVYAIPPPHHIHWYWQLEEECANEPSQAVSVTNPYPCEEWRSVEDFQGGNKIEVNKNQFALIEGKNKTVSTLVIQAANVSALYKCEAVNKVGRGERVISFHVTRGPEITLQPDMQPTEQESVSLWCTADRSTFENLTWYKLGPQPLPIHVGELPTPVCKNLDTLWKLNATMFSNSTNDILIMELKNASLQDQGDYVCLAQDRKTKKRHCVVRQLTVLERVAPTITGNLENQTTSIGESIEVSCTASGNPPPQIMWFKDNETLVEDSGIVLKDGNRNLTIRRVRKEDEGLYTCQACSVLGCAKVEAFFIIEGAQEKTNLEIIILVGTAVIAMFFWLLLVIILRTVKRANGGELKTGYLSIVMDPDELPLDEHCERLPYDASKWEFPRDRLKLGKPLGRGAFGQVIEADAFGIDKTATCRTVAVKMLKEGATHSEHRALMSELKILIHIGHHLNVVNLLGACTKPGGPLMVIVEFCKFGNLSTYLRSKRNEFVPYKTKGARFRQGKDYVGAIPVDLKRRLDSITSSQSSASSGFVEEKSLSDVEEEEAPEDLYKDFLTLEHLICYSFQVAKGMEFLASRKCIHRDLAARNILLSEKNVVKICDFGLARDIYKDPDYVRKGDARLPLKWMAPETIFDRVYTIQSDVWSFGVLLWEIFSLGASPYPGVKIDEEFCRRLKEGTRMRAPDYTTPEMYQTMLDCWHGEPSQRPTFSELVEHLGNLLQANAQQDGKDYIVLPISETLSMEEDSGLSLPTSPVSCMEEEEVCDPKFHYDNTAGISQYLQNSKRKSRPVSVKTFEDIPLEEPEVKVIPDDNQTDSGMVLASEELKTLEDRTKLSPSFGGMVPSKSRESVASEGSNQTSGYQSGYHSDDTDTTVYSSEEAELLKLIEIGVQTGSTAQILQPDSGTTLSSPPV
Chain of Receptor tyrosine-protein kinase erbB-2 (P04626 whole entry): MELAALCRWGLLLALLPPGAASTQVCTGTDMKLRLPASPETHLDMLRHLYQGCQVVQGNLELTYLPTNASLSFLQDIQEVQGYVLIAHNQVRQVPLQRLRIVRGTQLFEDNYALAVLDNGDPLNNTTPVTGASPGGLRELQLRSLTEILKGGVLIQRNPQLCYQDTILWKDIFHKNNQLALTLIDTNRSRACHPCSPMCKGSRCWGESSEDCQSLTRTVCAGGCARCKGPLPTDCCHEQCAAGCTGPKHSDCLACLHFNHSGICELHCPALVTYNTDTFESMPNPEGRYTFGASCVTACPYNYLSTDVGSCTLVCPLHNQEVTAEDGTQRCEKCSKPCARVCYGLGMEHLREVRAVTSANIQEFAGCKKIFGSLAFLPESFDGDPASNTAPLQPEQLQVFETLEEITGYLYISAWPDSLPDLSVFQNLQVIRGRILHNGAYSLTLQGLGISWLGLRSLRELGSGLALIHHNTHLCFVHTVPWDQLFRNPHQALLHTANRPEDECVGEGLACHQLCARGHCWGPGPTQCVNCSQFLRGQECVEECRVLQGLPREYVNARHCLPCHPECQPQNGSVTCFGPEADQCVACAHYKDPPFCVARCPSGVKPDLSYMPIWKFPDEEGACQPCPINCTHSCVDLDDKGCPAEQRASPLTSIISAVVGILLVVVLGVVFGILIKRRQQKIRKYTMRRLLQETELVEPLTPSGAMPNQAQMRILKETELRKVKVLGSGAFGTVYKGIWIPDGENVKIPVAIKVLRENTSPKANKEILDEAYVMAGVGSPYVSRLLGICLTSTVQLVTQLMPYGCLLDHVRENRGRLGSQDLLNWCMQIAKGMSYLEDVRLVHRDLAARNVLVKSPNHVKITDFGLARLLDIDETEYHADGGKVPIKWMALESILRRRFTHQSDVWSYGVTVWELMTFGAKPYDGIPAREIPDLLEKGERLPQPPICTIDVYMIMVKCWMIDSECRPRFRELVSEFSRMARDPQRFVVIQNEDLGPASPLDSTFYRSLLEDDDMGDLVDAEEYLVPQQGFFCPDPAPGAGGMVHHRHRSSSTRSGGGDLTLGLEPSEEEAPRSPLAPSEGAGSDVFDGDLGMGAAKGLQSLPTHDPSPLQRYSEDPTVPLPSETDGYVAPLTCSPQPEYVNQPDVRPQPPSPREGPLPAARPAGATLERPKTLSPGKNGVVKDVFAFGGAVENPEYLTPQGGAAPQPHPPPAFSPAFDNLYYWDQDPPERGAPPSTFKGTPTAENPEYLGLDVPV

Structure (SMILES)	IC50 [1]	IC50 [2]	IC50 [3]	IC50 [4]	IC50 [5]
COc1cc2c(Nc3ccc(Br)c(Cl)c3Cl)ncnc2cc1O[C@H]1CO[C@H]2[C@@H]1OC[C@@H]2OC [US9796704, Entry 66]	in the range around 10500 nM	> 20000 nM	> 20000 nM		
COc1cc2c(Nc3ccc(Cl)c(Cl)c3F)ncnc2cc1OC[C@@H]1C[C@@H]2CN(CC(C)C)C[C@@H]2C1 [US9796704, Entry 8]	in the range around 10500 nM		in the range around 10500 nM	in the range around 525 nM	
COc1cc2c(Nc3ccc(Br)c(Cl)c3F)ncnc2cc1OC[C@@H]1CN2CCOCC2CO1 (some centres not stated) [US9796704, Entry 23]		in the range around 10500 nM	in the range around 525 nM	in the range around 10500 nM	in the range around 10500 nM
COc1cc2c(Nc3ccc(Cl)c(Cl)c3F)ncnc2cc1OC[C@H]1CN2CCC[C@@H]2C(=O)N1C [US9796704, Entry 54]		in the range around 10500 nM	in the range around 10500 nM	in the range around 525 nM	in the range around 10500 nM
COc1cc2c(Nc3ccc(Cl)c(Cl)c3)ncnc2cc1OCCNC1CC2CCC(C1)N2C (configuration not stated) [US9796704, Entry 55]	in the range around 525 nM		in the range around 10500 nM		in the range around 10500 nM
COc1cc2c(Nc3cc(Cl)c(Br)cc3F)ncnc2cc1OC[C@H]1CN2CCC[C@@H]2CO1 [US9796704, Entry 32]		in the range around 525 nM	in the range around 10500 nM	in the range around 525 nM	in the range around 10500 nM
COc1cc2c(Nc3ccc(Cl)c(Cl)c3)ncnc2cc1OC1CC2CCC(C1)N2C (configuration not stated) [US9796704, Entry 60]	in the range around 525 nM	in the range around 10500 nM	in the range around 525 nM		in the range around 10500 nM
CCN1C[C@H]2C[C@@H](COc3cc4ncnc(Nc5ccc(Br)c(Cl)c5F)c4cc3OC)C[C@H]2C1 [US9796704, Entry 16]	in the range around 525 nM	in the range around 525 nM	in the range around 525 nM		in the range around 525 nM
COc1cc2c(Nc3ccc(Cl)c(Cl)c3)ncnc2cc1OCCC1CC2CCC(C1)N2C (configuration not stated) [US9796704, Entry 57]	in the range around 525 nM		in the range around 10500 nM	in the range around 525 nM	
COc1cc2c(Nc3ccc(Br)c(Cl)c3Cl)ncnc2cc1OC[C@@H]1CN2CCOCC2CO1 (some centres not stated) [US9796704, Entry 27]	in the range around 525 nM		< 50 nM		
COc1cc2c(Nc3cc(Cl)c(Br)cc3F)ncnc2cc1OC[C@H]1C[C@@H]2CN(C)C[C@@H]2C1 [US9796704, Entry 13]	< 50 nM		< 50 nM		
COc1cc2c(Nc3cc(Cl)c(Cl)cc3F)ncnc2cc1OC[C@H]1C[C@@H]2CN(C)C[C@@H]2C1 [US9796704, Entry 12]	< 50 nM		< 50 nM		
COc1cc2c(Nc3ccc(Br)c(Cl)c3F)ncnc2cc1OC[C@@H]1C[C@@H]2CN(CC(C)C)C[C@@H]2C1 [US9796704, Entry 17]	in the range around 10500 nM	in the range around 525 nM	in the range around 525 nM		in the range around 525 nM
COc1cc2c(Nc3ccc(Br)c(Cl)c3Cl)ncnc2cc1OC[C@H]1CN2CCOCC2CO1 (some centres not stated) [US9796704, Entry 18]	in the range around 525 nM		in the range around 525 nM	< 50 nM	
COc1cc2c(Nc3cc(Cl)c(Br)cc3F)ncnc2cc1OCC1CO[C@@H]2[C@@H](OC)CO[C@H]12 (some centres not stated) [US9796704, Entry 41]	in the range around 525 nM		in the range around 525 nM		
